# Test results as given in ChEMBL document CHEMBL1140668, “Antifungal activity in triterpene glycosides from the sea cucumber Actinopyga lecanora” (2007).
# What was measured:
# [1] = system: Trichophyton benhamiae; assay: Antifungal activity against Trichophyton mentagrophytes; assay type: functional, Arthroderma benhamiae
# [2] = system: Cryptococcus neoformans; assay: Antifungal activity against Cryptococcus neoformans; assay type: functional
# [3] = system: Sporothrix schenckii; assay: Antifungal activity against Sporothrix schenckii; assay type: functional
# [4] = system: Aspergillus fumigatus; assay: Antifungal activity against Aspergillus fumigatus; assay type: functional
# [5] = system: Candida albicans; assay: Antifungal activity against Candida albicans; assay type: functional
# [6] = system: Candida parapsilosis; assay: Antifungal activity against Candida parapsilosis ATCC 22019; assay type: functional; conditions: Lodderomyces parapsilosis
# [7] = system: Cryptococcus neoformans; assay: Antifungal activity against Cryptococcus neoformans ATCC 6603; assay type: functional
# [8] = system: Candida albicans; assay: Antifungal activity against Candida albicans ATCC 14053; assay type: functional
# [9] = system: Talaromyces funiculosus; assay: Antifungal activity against Penicillium funiculosum MTCC 287; assay type: functional
# [10] = system: Candida albicans; assay: Antifungal activity against Candida albicans MTCC 183; assay type: functional
# [11] = system: Pichia kudriavzevii; assay: Antifungal activity against Candida krusei ATCC 6258; assay type: functional
# [12] = system: Trichophyton rubrum; assay: Antifungal activity against Trichophyton rubrum MTCC 296; assay type: functional
# [13] = system: Aspergillus flavus; assay: Antifungal activity against Aspergillus flavus; assay type: functional
# [14] = system: Aspergillus terreus; assay: Antifungal activity against Aspergillus terreus IMI 235704; assay type: functional
# [15] = system: Penicillium ochrochloron; assay: Antifungal activity against Penicillium ochrochloron MTCC 517; assay type: functional
# [16] = system: Candida albicans; assay: Antifungal activity against Candida albicans ATCC 66027; assay type: functional
# [17] = system: Candida albicans; assay: Antifungal activity against Candida albicans ATCC 60193; assay type: functional
# [18] = system: Cryptococcus neoformans; assay: Antifungal activity against Filobasidiella neoformans MTCC 1346; assay type: functional
# [19] = system: Candida albicans; assay: Antifungal activity against Candida albicans ATCC 10231; assay type: functional
# [20] = system: Candida albicans; assay: Antifungal activity against Candida albicans MTCC 227; assay type: functional
Structure (SMILES),MIC [1] [µg/mL],MIC [2] [µg/mL],MIC [3] [µg/mL],MIC [4] [µg/mL],MIC [5] [µg/mL],MIC [6] [µg/mL],MIC [7] [µg/mL],MIC [8] [µg/mL],MIC [9] [µg/mL],MIC [10] [µg/mL],MIC [11] [µg/mL],MIC [12] [µg/mL],MIC [13] [µg/mL],MIC [14] [µg/mL],MIC [15] [µg/mL],MIC [16] [µg/mL],MIC [17] [µg/mL],MIC [18] [µg/mL],MIC [19] [µg/mL],MIC [20] [µg/mL]
CO[C@@H]1[C@@H](O)[C@H](O[C@@H]2[C@@H](O)[C@H](O[C@H]3[C@H](O)[C@@H](O)[C@H](O[C@H]4[C@H](O[C@H]5CC[C@]6(C)C7=C[C@H](O)[C@@]89C(=O)O[C@@](C)(C%10CCC(C)(C)O%10)[C@@]8(O)CC[C@@]9(C)[C@@H]7CC[C@H]6C5(C)C)OC[C@@H](OS(=O)(=O)[O-])[C@@H]4O)O[C@@H]3C)O[C@H](CO)[C@H]2O)O[C@H](CO)[C@H]1O.[Na+] (some centres not stated) [HOLOTHURIN A],25,25,25,50,50,,,,,,,,,,,,,,,
OC(Cn1cncn1)(Cn1cncn1)c1ccc(F)cc1F [FLUCONAZOLE],2,1,1,2,0.5,1,,,,,,,,,,,,,,
CC(=O)O[C@H]1C[C@@]2(C)C3=CCC4C(C)(C)[C@@H](O[C@@H]5OC[C@@H](O)[C@H](O)[C@H]5O)CC[C@]4(C)C3CCC23C(=O)O[C@@](C)(CCCC(C)C)[C@@H]13 (some centres not stated),25,25,25,50,50,50,,,,,,,,,,,,,,
C[C@H]1O[C@@H](O[C@H]2[C@H](O[C@H]3CC[C@]4(C)C5=C[C@H](O)C67C(=O)O[C@@](C)(C8CCC(C)(C)O8)[C@@]6(O)CC[C@@]7(C)[C@@H]5CCC4C3(C)C)OC[C@@H](OS(=O)(=O)[O-])[C@@H]2O)[C@H](O)[C@@H](O)[C@@H]1O.[Na+] (some centres not stated) [HOLOTHURIN B],1.56,3.12,1.56,3.12,3.12,6.25,3.12,12.5,12.5,25,12.5,3.12,12.5,25,12.5,25,12.5,6.25,25,12.5
